Reference: ChEMBL document CHEMBL5620408, “Discovery of novel diarypyrimidine derivatives bearing six-membered non-aromatic heterocycles as potent HIV-1 NNRTIs with improved anti-resistance and drug-like profiles” (Eur J Med Chem, 2023)
Activity calls are given as the source filed them. The rule behind the calls is not given here.

Assays:
[1] = test system: Human immunodeficiency virus 1; assay: Antiviral activity against HIV1 NL4-3 infected in MT4 cells at 25 ng/ml; format: functional, organism-based
MT4 = assay: Cytotoxicity against human MT4 cells; format: toxicity, cell-based
[2] = test system: Human immunodeficiency virus 1; assay: Antiviral activity against HIV1 NL4-3 infected in MT4 cells; format: functional, organism-based; conditions: Human immunodeficiency virus 1, NL4-3, MT4
[3] = Cytotoxicity against human MT4 cells assessed as reduction in cell viability by MTT assay; format: toxicity, cell-based
[4] = Selectivity index, ratio of CC50 for human MT4 cells to EC50 for antiviral activity against HIV IIIB
[5] = Selectivity index, ratio of CC50 for human MT4 cells to EC50 for antiviral activity against HIV RES056
[6] = test system: Human immunodeficiency virus 1; assay: Antiviral activity against HIV1 harboring L100I mutant infected in MT4 cells; format: functional, organism-based; conditions: Human immunodeficiency virus 1, MT4
[7] = test system: Human immunodeficiency virus 1; assay: Antiviral activity against HIV1 harboring K103N mutant infected in MT4 cells; format: functional, organism-based; conditions: Human immunodeficiency virus 1, MT4
[8] = test system: Human immunodeficiency virus 1; assay: Antiviral activity against HIV1 harboring Y181C mutant infected in MT4 cells; format: functional, organism-based; conditions: Human immunodeficiency virus 1, MT4
[9] = test system: Human immunodeficiency virus 1; assay: Antiviral activity against HIV1 harboring Y188L mutant infected in MT4 cells; format: functional, organism-based; conditions: Human immunodeficiency virus 1, MT4
[10] = test system: Human immunodeficiency virus 1; assay: Antiviral activity against HIV1 harboring E138K mutant infected in MT4 cells; format: functional, organism-based; conditions: Human immunodeficiency virus 1, MT4
[11] = test system: Human immunodeficiency virus 1; assay: Antiviral activity against HIV1 harboring F227L/V106A double mutant infected in MT4 cells; format: functional, organism-based; conditions: Human immunodeficiency virus 1, MT4
[12] = target: Human immunodeficiency virus type 1 reverse transcriptase (Human immunodeficiency virus 1, UniProt Q72547); assay: Inhibition of wild type HIV-1 reverse transcriptase
[13] = test system: Human immunodeficiency virus 1; assay: microbe, parasite or virus in culture; conditions: Human immunodeficiency virus 1, IIIB, MT4
Description: Antiviral activity against HIV1 IIIB infected in MT-4 cells assessed as viral induced cytopathic effect by MTT assay

[14] = test system: Human immunodeficiency virus 1; assay: microbe, parasite or virus in culture; conditions: Human immunodeficiency virus 1, RES056, MT4
Description: Antiviral activity against HIV1 RES056 infected in MT-4 cells assessed as viral induced cytopathic effect by MTT assay

Row | Compound | Activity [1] | Activity (MT4) | EC50 [2] [nM] | CC50 [3] [nM] | selectivity ratio [4] | selectivity ratio [5] | EC50 [6] [nM] | EC50 [7] [nM] | EC50 [8] [nM] | EC50 [9] [nM] | EC50 [10] [nM] | EC50 [11] [nM] | IC50 [12] [nM] | EC50 [13] [nM] | EC50 [14] [nM]
1 | Cc1cc(C#N)cc(C)c1Oc1ccnc(Nc2ccc(N3CCN(S(C)(=O)=O)CC3)cc2)n1 | inactive | Non-Toxic |  |  |  |  |  |  |  |  |  |  |  |  | 
2 | Cc1cc(/C=C/C#N)cc(C)c1Oc1ccnc(Nc2ccc(N3CCN(S(=O)(=O)N(C)C)CC3)c(F)c2)n1 |  | Non-Toxic | 5.67 | 4590 | 993 | < 1 | 58 | 9 | 120 | > 4590 | 32 | 68 | 78 | 5 | > 4590
3 | Cc1cn([C@H]2C[C@H](N=[N+]=[N-])[C@@H](CO)O2)c(=O)[nH]c1=O [ZIDOVUDINE] |  | Non-Toxic | 15.3 | > 7480 |  |  |  |  |  |  |  |  |  |  | 37
4 | CCS(=O)(=O)N1CCN(c2ccc(Nc3nccc(Oc4c(C)cc(/C=C/C#N)cc4C)n3)cc2)CC1 |  | Non-Toxic | 2.18 | > 38600 | > 7740 |  | 450 | 48 | 810 | > 38600 | 85 | 240 | 100 | 5 | > 38600
5 | Cc1cc(C#N)cc(C)c1Oc1ccnc(Nc2ccc(N3CCN(S(C)(=O)=O)CC3)c(F)c2)n1 |  | Non-Toxic | 5.74 | 7750 | 1240 | < 1 |  |  |  |  |  |  | 43 | 6 | > 7750
6 | CCS(=O)(=O)N1CCC(c2ccc(Nc3nccc(Oc4c(C)cc(/C=C/C#N)cc4C)n3)cc2)CC1 |  | Non-Toxic | 5.7 | > 38600 | > 7360 |  |  |  |  |  |  |  | 71 | 5 | > 38600
7 | Cc1cc(/C=C/C#N)cc(C)c1Oc1ccnc(Nc2ccc(N3CCN(S(C)(=O)=O)CC3)c(F)c2)n1 |  | Non-Toxic | 0.48 | 3210 | 1710 | 5 | 22 | 3 | 30 | > 3210 | 11 | 34 | 40 | 2 | 670
8 | Cc1cc(/C=C/C#N)cc(C)c1Oc1ccnc(Nc2ccc(CN3CCN(S(C)(=O)=O)CC3)cc2)n1 |  | Non-Toxic | 0.79 |  |  |  | 14 | 4 |  | 1320 | 9 | 210 | 33 |  | 
9 | Cc1cc(C#N)cc(C)c1Oc1ccnc(Nc2ccc(C3CCN(S(=O)(=O)C4CC4)CC3)cc2)n1 | inactive | Non-Toxic |  |  |  |  |  |  |  |  |  |  |  |  | 
10 | Cc1cc(/C=C/C#N)cc(C)c1Oc1ccnc(Nc2ccc(N3CCN(S(=O)(=O)C(C)C)CC3)c(F)c2)n1 |  | Non-Toxic | 5.3 | 18100 | 3620 | 3 | 42 | 7 | 94 | > 18100 | 29 | 100 | 97 | 5 | 5880
11 | CCS(=O)(=O)N1CCN(c2ccc(Nc3nccc(Oc4c(C)cc(/C=C/C#N)cc4C)n3)cc2F)CC1 |  | Non-Toxic | 1.64 | 111000 | 37900 | 64 | 21 | 4 | 30 | > 111000 | 15 | 36 | 54 | 3 | 1730
12 | Cc1cc(/C=C/C#N)cc(C)c1Oc1ccnc(Nc2ccc(C3CCN(S(=O)(=O)C4CC4)CC3)cc2)n1 |  | Non-Toxic | 5.95 | > 37800 | > 7650 |  | 110 | 20 | 380 | > 37800 | 51 | 57 | 79 | 5 | > 37800
13 | Cc1cc(/C=C/C#N)cc(C)c1Oc1ccnc(Nc2ccc(N3CC[S+]([O-])CC3)c(F)c2)n1 |  |  |  | 13300 | 9800 | 10 | 34 | 4 | 84 | 5120 | 24 | 130 | 27 | 1 | 1300
14 | Cc1cc(C#N)cc(C)c1Oc1ccnc(Nc2ccc(N3CCN(S(=O)(=O)C(C)C)CC3)c(F)c2)n1 |  | Non-Toxic | 24.6 | 192000 | 24500 | < 1 |  |  |  |  |  |  | 140 | 8 | > 192000
15 | Cc1cc(/C=C/C#N)cc(C)c1Oc1ccnc(Nc2ccc(C3CCN(S(=O)(=O)C(C)C)CC3)cc2)n1 |  | Non-Toxic | 11.9 | 2380 | 298 | < 1 |  |  |  |  |  |  | 130 | 8 | > 2380
16 | Cc1cc(C#N)cc(C)c1Oc1ccnc(Nc2ccc(N3CCN(S(=O)(=O)C4CC4)CC3)c(F)c2)n1 |  | Non-Toxic | 8.32 | > 239000 | > 40600 |  |  |  |  |  |  |  | 77 | 6 | > 239000
17 | CCS(=O)(=O)N1CCN(c2ccc(Nc3nccc(Oc4c(C)cc(C#N)cc4C)n3)cc2F)CC1 |  | Non-Toxic | 10.2 | > 245000 | > 55100 |  | 130 | 21 | 190 | > 245000 | 64 | 55 | 58 | 4 | > 245000
18 | Cc1cc(/C=C/C#N)cc(C)c1Oc1ccnc(Nc2ccc(N3CCN(S(C)(=O)=O)CC3)cc2)n1 |  | Non-Toxic | 1.84 | 2570 | 536 | < 1 | 370 | 37 | 960 | > 2570 | 850 | 270 | 65 | 5 | > 2570
19 | Cc1cc(C#N)cc(C)c1Oc1nc(Nc2ccc(C#N)cc2)nc(N)c1Br [ETRAVIRINE] |  |  |  | > 4590 |  |  |  | 1 |  |  |  | 25 |  |  | 76
20 | Cc1cc(/C=C/C#N)cc(C)c1Oc1ccnc(Nc2ccc(C3CCN(S(C)(=O)=O)CC3)cc2)n1 |  | Non-Toxic | 6.23 | 4300 | 1030 | < 1 | 92 | 14 | 320 | > 4300 | 30 | 42 | 44 | 4 | > 4300
21 | Cc1cc(/C=C/C#N)cc(C)c1Oc1ccnc(Nc2ccc(N3CCN(S(=O)(=O)N(C)C)CC3)cc2)n1 |  | Non-Toxic | 28.9 | 78100 | 10200 | < 1 |  |  |  |  |  |  | 140 | 8 | > 78100
22 | Cc1ccnc2c1NC(=O)c1cccnc1N2C1CC1 [NEVIRAPINE] |  |  |  | > 15000 |  |  |  | 6040 | 7400 | > 15000 |  | > 15000 |  |  | > 15000
23 | Cc1cc(/C=C/C#N)cc(C)c1Oc1ccnc(Nc2ccc(C3CCN(S(=O)(=O)N(C)C)CC3)cc2)n1 |  | Non-Toxic | 24.8 | 6270 | 686 | < 1 |  |  |  |  |  |  | 100 | 9 | > 6270
24 | Cc1cc(/C=C/C#N)cc(C)c1Oc1ccnc(Nc2ccc(N3CCN(S(=O)(=O)C4CC4)CC3)cc2)n1 |  | Non-Toxic | 6.12 | 216000 | 37300 | < 1 |  |  |  |  |  |  | 83 | 6 | > 216000
25 | Cc1cc(/C=C/C#N)cc(C)c1Oc1ccnc(Nc2ccc(N3CCN(S(=O)(=O)C(C)C)CC3)cc2)n1 |  | Non-Toxic | 25.5 | 1730 | 193 | < 1 |  |  |  |  |  |  | 130 | 9 | > 1730
26 | Cc1cc(/C=C/C#N)cc(C)c1Nc1ccnc(Nc2ccc(C#N)cc2)n1 [RILPIVIRINE] |  | Non-Toxic | 0.6 |  |  |  |  |  |  |  |  |  | 430 |  | 
27 | Cc1cc(/C=C/C#N)cc(C)c1Oc1ccnc(Nc2ccc(N3CCOCC3)c(F)c2)n1 |  |  |  | 228000 | 49600 | 272 | 27 | 5 | 44 | 4190 | 25 | 100 | 46 | 5 | 840
28 | O=C1Nc2ccc(Cl)cc2[C@@](C#CC2CC2)(C(F)(F)F)O1 [EFAVIRENZ] |  |  |  | > 6330 |  |  | 53 |  |  | 250 |  |  |  |  | 
